{
  "source": "patent US20040076974A1",
  "about": "“Liver necrosis predictive genes” (priority 2002, published 2004)",
  "key": {"[1]": {"tested_on": "Sprague Dawley rats", "conditions": "rat", "how_it_was_run": "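Toxicity calls (necrosis present or absent at 72 h) and histopathology scores were correlated with tissue gene expression from Crl:CD Sprague Dawley rats. Animals, usually 3 treated with compound by i.p. route and 3 given vehicle, were killed at 6, 24 or 72 h and tissues frozen immediately in liquid nitrogen.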"}, "[2]": {"tested_on": "Male Sprague-Dawley rats", "format": "in vivo, rat", "conditions": "intraperitoneal injection"}, "[3]": {"tested_on": "toxicologically relevant rat genes (rat CT array)", "conditions": "rat, in vivo"}},
  "note": "Read-outs that look alike come from different tables or passages of the source.",
  "data": [
    {"molecule": "S=C=Nc1cccc2ccccc12", "note": "[1-naphthylisothiocyanate]", "values": [
      {"measurement": "toxicity at the high dose", "setting": "[1]; high dose of Table 1, liver necrosis at 72 hours", "value": "produced toxicity"},
      {"measurement": "Liver Necrosis", "setting": "[1]; intraperitoneal, dose 15 mgkg, 72 hours after treatment", "value": "no"},
      {"measurement": "Score (histopathology liver necrosis severity score)", "setting": "[1]; intraperitoneal, dose 15 mgkg, 72 hours, 1 = not remarkable, 2 and higher increasing severity", "value": 1},
      {"measurement": "Liver Necrosis", "setting": "[1]; intraperitoneal, dose 60 mgkg, 72 hours after treatment", "value": "Yes"},
      {"measurement": "Score (histopathology liver necrosis severity score)", "setting": "[1]; intraperitoneal, dose 60 mgkg, 72 hours, 1 = not remarkable, 2 and higher increasing severity", "value": 2},
      {"measurement": "hepatocellular necrosis by histopathology", "setting": "[2]; 100 mg/kg", "value": "induced hepatocellular necrosis"}
    ]},
    {"molecule": "CN(C)[C@@H]1C(O)=C(C(N)=O)C(=O)[C@@]2(O)C(O)=C3C(=O)c4c(O)cccc4[C@@](C)(O)[C@H]3C[C@@H]12", "note": "[tetracycline]", "values": [
      {"measurement": "toxicity at the high dose", "setting": "[1]; in vivo", "value": "produced toxicity"},
      {"measurement": "toxicity at the low dose", "setting": "[1]; in vivo", "value": "not at the low dose"},
      {"measurement": "Liver Necrosis", "setting": "[1]; in vivo, ip, 50 mg/kg", "value": "no"},
      {"measurement": "Score (histopathology liver necrosis severity score)", "setting": "[1]; in vivo, ip, 50 mg/kg", "value": 1},
      {"measurement": "Liver Necrosis", "setting": "[1]; in vivo, ip, 150 mg/kg", "value": "Yes"},
      {"measurement": "Score (histopathology liver necrosis severity score)", "setting": "[1]; in vivo, ip, 150 mg/kg", "value": 2},
      {"measurement": "14-3-3 zeta expression", "setting": "[3]", "value": 0.7335},
      {"measurement": "60S ribosomal protein L6 expression", "setting": "[3]", "value": 1.38},
      {"measurement": "Adenine nucleotide translocator 1 expression", "setting": "[3]", "value": 1.332},
      {"measurement": "Alpha-1 microglobulin/bikunin precursor (Ambp) expression", "setting": "[3]", "value": 1.73},
      {"measurement": "Alpha-2-macroglobulin, sequence 2 expression", "setting": "[3]", "value": 1.2},
      {"measurement": "Alpha-2-microglobulin expression", "setting": "[3]", "value": 0.5107},
      {"measurement": "Alpha-prothymosin expression", "setting": "[3]", "value": 1.454},
      {"measurement": "Alpha-tubulin expression", "setting": "[3]", "value": 0.9701},
      {"measurement": "Apolipoprotein AII expression", "setting": "[3]", "value": 0.2962},
      {"measurement": "Apolipoprotein C1 expression", "setting": "[3]", "value": 1.791},
      {"measurement": "Aquaporin-3 (AQP3) expression", "setting": "[3]", "value": 0.9307},
      {"measurement": "Beta-actin expression", "setting": "[3]", "value": 0.78},
      {"measurement": "Beta-actin, sequence 2 expression", "setting": "[3]", "value": 0.5941},
      {"measurement": "Beta-tubulin, class I expression", "setting": "[3]", "value": 0.7321},
      {"measurement": "Betaine homocysteine methyltransferase (BHMT) expression", "setting": "[3]", "value": 0.2575},
      {"measurement": "Biliverdin reductase expression", "setting": "[3]", "value": 0.7455},
      {"measurement": "CDK108 expression", "setting": "[3]", "value": 0.7153},
      {"measurement": "Calpactin I heavy chain expression", "setting": "[3]", "value": 1.165},
      {"measurement": "Calpain 2 expression", "setting": "[3]", "value": 1.216},
      {"measurement": "Cathepsin L, sequence 2 expression", "setting": "[3]", "value": 1.097},
      {"measurement": "Cathepsin S expression", "setting": "[3]", "value": 1.473},
      {"measurement": "Cholesterol esterase expression", "setting": "[3]", "value": 0.955},
      {"measurement": "Cofilin expression", "setting": "[3]", "value": 1.77},
      {"measurement": "Collagen type II expression", "setting": "[3]", "value": 1.355},
      {"measurement": "Cyclin D1 expression", "setting": "[3]", "value": 1.265},
      {"measurement": "Cystatin C expression", "setting": "[3]", "value": 1.57},
      {"measurement": "Cytochrome P450 2A3 expression", "setting": "[3]", "value": 0.8495},
      {"measurement": "Cytochrome P450 2C11 expression", "setting": "[3]", "value": 0.8002},
      {"measurement": "Cytochrome P450 2C23 expression", "setting": "[3]", "value": 1.592},
      {"measurement": "Dynamin-1 (D100) expression", "setting": "[3]", "value": 0.9613},
      {"measurement": "Elongation factor-1 alpha expression", "setting": "[3]", "value": 1.049},
      {"measurement": "Equilbrative nitrobenzylthioinosine-sensitive nucleoside transporter expression", "setting": "[3]", "value": 1.39},
      {"measurement": "F1-ATPase beta subunit expression", "setting": "[3]", "value": 1.072},
      {"measurement": "Fatty acid synthase expression", "setting": "[3]", "value": 0.837},
      {"measurement": "Gamma-actin, cytoplasmic expression", "setting": "[3]", "value": 1.057},
      {"measurement": "Glutathione S-transferase theta-1 expression", "setting": "[3]", "value": 1.085},
      {"measurement": "Glycine methyltransferase expression", "setting": "[3]", "value": 0.5811},
      {"measurement": "Heme oxygenase expression", "setting": "[3]", "value": 1.421},
      {"measurement": "High affinity IgE receptor gamma chain (FcERIgamma) expression", "setting": "[3]", "value": 1.193},
      {"measurement": "Hypoxanthine-guanine phosphoribosyltransferase expression", "setting": "[3]", "value": 0.7473},
      {"measurement": "IgE binding protein expression", "setting": "[3]", "value": 1.055},
      {"measurement": "Insulin-like growth factor I, exon 6 expression", "setting": "[3]", "value": 0.8256},
      {"measurement": "JNK1 stress activated protein kinase expression", "setting": "[3]", "value": 0.6582},
      {"measurement": "Melanoma-associated antigen ME491 expression", "setting": "[3]", "value": 1.77},
      {"measurement": "Multidrug resistant protein-1 expression", "setting": "[3]", "value": 1.041},
      {"measurement": "Multidrug resistant protein-2 expression", "setting": "[3]", "value": 0.8907},
      {"measurement": "N-hydroxy-2-acetylaminofluorene sulfotransferase (ST1C1) expression", "setting": "[3]", "value": 1.531},
      {"measurement": "NADP-dependent isocitrate dehydrogenase, cytosolic expression", "setting": "[3]", "value": 1.608},
      {"measurement": "NIPK expression", "setting": "[3]", "value": 0.7421},
      {"measurement": "Nucleoside diphosphate kinase beta isoform expression", "setting": "[3]", "value": 1.032},
      {"measurement": "Organic cation transporter 3 expression", "setting": "[3]", "value": 1.233},
      {"measurement": "Ornithine decarboxylase expression", "setting": "[3]", "value": 0.9438},
      {"measurement": "Osteoactivin expression", "setting": "[3]", "value": 1.112},
      {"measurement": "Paraoxonase 1 expression", "setting": "[3]", "value": 2.144},
      {"measurement": "Phase-1 RCT-24 expression", "setting": "[3]", "value": 0.8327},
      {"measurement": "Phase-1 RCT-36 expression", "setting": "[3]", "value": 0.8652},
      {"measurement": "Phase-1 RCT-43 expression", "setting": "[3]", "value": 1.003},
      {"measurement": "Phase-1 RCT-58 expression", "setting": "[3]", "value": 1.737},
      {"measurement": "Phase-1 RCT-109 expression", "setting": "[3]", "value": 0.5933},
      {"measurement": "Phase-1 RCT-117 expression", "setting": "[3]", "value": 0.8447},
      {"measurement": "Phase-1 RCT-146 expression", "setting": "[3]", "value": 0.9475},
      {"measurement": "Phase-1 RCT-149 expression", "setting": "[3]", "value": 0.6559},
      {"measurement": "Phase-1 RCT-173 expression", "setting": "[3]", "value": 0.5698},
      {"measurement": "Phase-1 RCT-179 expression", "setting": "[3]", "value": 1.528},
      {"measurement": "Phase-1 RCT-207 expression", "setting": "[3]", "value": 0.6995},
      {"measurement": "Phase-1 RCT-211 expression", "setting": "[3]", "value": 0.6151},
      {"measurement": "Phase-1 RCT-227 expression", "setting": "[3]", "value": 1.846},
      {"measurement": "Phase-1 RCT-290 expression", "setting": "[3]", "value": 0.417},
      {"measurement": "Poly(ADP-ribose) polymerase expression", "setting": "[3]", "value": 0.9896},
      {"measurement": "Presenilin-1 expression", "setting": "[3]", "value": 2.114},
      {"measurement": "Protein tyrosine phosphatase, receptor type, D expression", "setting": "[3]", "value": 1.295},
      {"measurement": "Pyruvate kinase, muscle expression", "setting": "[3]", "value": 0.6785},
      {"measurement": "Ribosomal protein L13A expression", "setting": "[3]", "value": 0.6452},
      {"measurement": "Ribosomal protein S9 expression", "setting": "[3]", "value": 1.161},
      {"measurement": "Ribosomal protein S17 expression", "setting": "[3]", "value": 1.358},
      {"measurement": "Stathmin expression", "setting": "[3]", "value": 0.7954},
      {"measurement": "Stearyl-CoA desaturase, liver expression", "setting": "[3]", "value": 0.1376},
      {"measurement": "Thioredoxin-1 (Trx1) expression", "setting": "[3]", "value": 0.7172},
      {"measurement": "Thymosin beta-10 expression", "setting": "[3]", "value": 0.6534},
      {"measurement": "Tissue plasminogen activator expression", "setting": "[3]", "value": 0.9708},
      {"measurement": "Transitional endoplasmic reticulum ATPase expression", "setting": "[3]", "value": 1.373},
      {"measurement": "Ubiquitin conjugating enzyme (RAD 6 homologue) expression", "setting": "[3]", "value": 1.177},
      {"measurement": "Uncoupling protein 2 expression", "setting": "[3]", "value": 0.7333},
      {"measurement": "Zinc finger protein expression", "setting": "[3]", "value": 1.116},
      {"measurement": "alpha-1,2-fucosyltransferase expression", "setting": "[3]", "value": 0.495},
      {"measurement": "p55CDC expression", "setting": "[3]", "value": 0.9757},
      {"measurement": "{Phase-1 RCT 98} expression", "setting": "[3]", "value": 1.16},
      {"measurement": "{Ribosomal protein 16} expression", "setting": "[3]", "value": 1.197}
    ]},
    {"molecule": "CC(=N)S", "note": "[thioacetamide]", "values": [
      {"measurement": "hepatocellular necrosis by histopathology", "setting": "[2]; 200 mg/kg", "value": "induced hepatocellular necrosis"}
    ]}
  ]
}
